Source: patent US7256190B2, “Thiazole compounds useful as inhibitors of protein kinase” (Vertex Pharmaceuticals Incorporated, priority 2001, dated 2007)

Tests used:
Assay type in all cases: biochemical
[1] = molecular target: GSK3-β (AA 1-420) (Homo sapiens, UniProt P49841); assay: GSK-3 inhibition assay (coupled enzyme system); conditions: 10 μM ATP, 300 μM peptide, 60 nM GSK-3β, 30° C.
Protocol: Compounds were screened for their ability to inhibit GSK3-β (AA 1-420) activity using a standard coupled enzyme system (Fox et al. (1998) Protein Sci. 7, 2249). Reactions were carried out in a solution containing 100 mM HEPES (pH 7.5), 10 mM MgCl2, 25 mM NaCl, 300 μM NADH, 1 mM DTT and 1.5% DMSO. Final substrate concentrations in the assay were 10 μM ATP (Sigma Chemicals, St Louis, Mo.) and 300 μM peptide (HSSPHQS(PO3H2)EDEEE, American Peptide, Sunnyvale, Calif.). Reactions were carried out at 30° C. and 60 nM GSK-3β. Final concentrations of the components of the coupled enzyme system were 2.5 mM phosphoenolpyruvate, 300μM NADH, 30 μg/ml pyruvate kinase and 10 μg/ml lactate dehydrogenase.
An assay stock buffer solution was prepared containing all of the reagents listed above with the exception of ATP and the test compound of interest. 59 μl of the test reaction was placed in a 96 well ½-diameter plate (Corning, Corning, N.Y.) then treated with 1 μl of a 2 mM DMSO stock containing the test compound (final compound concentration 30 μM). The plate was incubated for ˜10 minutes at 30° C. then the reaction initiated by addition of 7 μl of ATP (final concentration 10 μM). Rates of reaction were obtained using a Molecular Devices Spectramax plate reader (Sunnyvale, Calif.) over a 5 minute read time at 30° C.
(§1) The compound numbers correspond to the compound numbers in Table 1.

[2] = molecular target: T1, Aurora2 (Homo sapiens, UniProt O14965); assay: Aurora2 inhibition assay (coupled enzyme assay); conditions: 800 μM peptide LRRASLG, 70 nM Aurora2, 30° C.
T1 sequence (O14965 1-403): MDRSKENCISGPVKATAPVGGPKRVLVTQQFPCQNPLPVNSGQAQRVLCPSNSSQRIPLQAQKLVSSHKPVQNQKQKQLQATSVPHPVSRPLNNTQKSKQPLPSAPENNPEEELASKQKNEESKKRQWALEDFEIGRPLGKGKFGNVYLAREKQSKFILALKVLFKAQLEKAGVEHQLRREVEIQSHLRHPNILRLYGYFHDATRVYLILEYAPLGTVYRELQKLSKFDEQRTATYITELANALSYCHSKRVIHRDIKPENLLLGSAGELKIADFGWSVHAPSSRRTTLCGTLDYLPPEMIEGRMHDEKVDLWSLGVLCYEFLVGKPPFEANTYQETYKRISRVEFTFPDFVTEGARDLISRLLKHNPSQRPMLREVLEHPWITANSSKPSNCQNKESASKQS
Protocol: Compounds are screened in the following manner for their ability to inhibit Aurora2 using a standard coupled enzyme assay (Fox et al (1998). Protein Sci 7, 2246). To an assay stock buffer solution containing 0.1M HEPES 7.5, 10 mM MgCl2, 1 mM DTT, 25 mM NaCl, 2.5 mM prosphoenolpyruvate, […], […] pyruvate kinase, […] lactate dehydrogenase, […], and 800 μM peptide (LRRASLG, American Peptide, Sunnyvale, Calif.) is added a DMSO solution of a compound of the present invention to a final concentration of 30 μM. The resulting mixture is incubated at 30° C. for 10 minutes. The reaction was initiated by the addition of 10 μL of Aurora2 stock solution to give a final concentration of 70 nM in the assay. The rates of reaction are obtained by monitoring absorbance at 340 nm over a 5 minute read time at 30° C. using a BioRad Ultramark plate reader (Hercules, Calif.). The IC50 values are determined from the rate data as a function of inhibitor concentration.
as §1

[3] = molecular target: Syk (Homo sapiens, UniProt P43405); assay: Syk inhibition assay (coupled enzyme assay); conditions: 200 μM ATP, 4 μM poly Gly-Tyr peptide, 30° C.
Protocol: Reactions were carried out in 100 mM HEPES pH 7.5, 10 mM MgCl2, 25 mM NaCl, 1 mM DTT and 1.5% DMSO. Final substrate .concentrations in the assay were 200 μM ATP (Sigmachemical Co.) and 4 μM poly Gly-Tyr peptide (Sigma Chemical Co.). Assays were carried out at 30° C. and 200 nM Syk. Final concentrations of the components of the coupled enzyme system were 2.5 mM phosphoenolpyruvate, 300 μM NADH, 30 μg/ml pyruvate kinase and 10 μg/ml lactate dehydrogenase.
An assay stock buffer solution was prepared containing all of the reagents listed above, with the exception of Syk, DTT and the test compound of interest. 56 μl of the test reaction was placed in a 96 well plate followed by the addition of 1 μl of 2 mM DMSO stock containing the test compound (final compound concentration 30 μM). […] Rates of reaction were obtained using a BioRad Ultramark plate reader (Hercules, Calif.) over a 5 minute read time at 30° C.
as §1

Sequence of GSK3-β (AA 1-420) (P49841 whole entry, the tested form may be a part): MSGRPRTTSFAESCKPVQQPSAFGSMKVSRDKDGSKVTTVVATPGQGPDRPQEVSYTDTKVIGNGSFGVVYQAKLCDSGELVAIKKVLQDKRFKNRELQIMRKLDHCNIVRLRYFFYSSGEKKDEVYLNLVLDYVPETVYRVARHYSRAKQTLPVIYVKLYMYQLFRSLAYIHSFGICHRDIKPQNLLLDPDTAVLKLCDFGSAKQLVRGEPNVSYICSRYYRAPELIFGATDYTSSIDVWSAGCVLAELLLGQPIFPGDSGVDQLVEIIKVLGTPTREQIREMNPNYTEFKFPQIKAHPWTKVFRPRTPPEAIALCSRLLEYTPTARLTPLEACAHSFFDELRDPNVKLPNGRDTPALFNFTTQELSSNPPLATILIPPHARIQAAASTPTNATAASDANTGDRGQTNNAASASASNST

SMILES | Ki [1] [nM] | IC50 [2] [nM] | IC50 [3] [nM]
Clc1ccc(COc2cccc(Nc3nccc(-c4nccs4)n3)c2)cc1Cl [Compound I-2] | > 1000 | > 2000 | > 2000
c1ccc(Oc2cccc(Nc3nccc(-c4nccs4)n3)c2)cc1 [Compound I-4] | < 100 | 500 to 2000 | 500 to 2000
CS(=O)(=O)c1ccc(COc2cccc(Nc3nccc(-c4nccs4)n3)c2)cc1 [Compound I-5] | < 100 | > 2000 | < 500
c1cc(Nc2nccc(-c3nccs3)n2)cc(OCc2ccncc2)c1 [Compound I-8] | < 100 | < 500 | > 2000
Oc1cccc(Nc2nccc(-c3nccs3)n2)c1 [Compound I-11] | < 100 | < 500 | < 500
Nc1cccc(COc2cccc(Nc3nccc(-c4nccs4)n3)c2)c1 [Compound I-14] | < 100 | 500 to 2000 | 500 to 2000
O=[N+]([O-])c1cccc(Nc2nccc(-c3nccs3)n2)c1 [Compound I-16] | > 1000 | < 500 | 500 to 2000
c1cc(Nc2nccc(-c3nccs3)n2)cc(OCc2ccc3c(c2)OCO3)c1 [Compound I-17] | < 100 | < 500 | < 500
Fc1cccc(Nc2nccc(-c3nccs3)n2)c1 [Compound I-19] | < 100 | 500 to 2000 | 500 to 2000
Clc1cccc(Nc2nccc(-c3nccs3)n2)c1 [Compound I-22] | < 100 | < 500 | < 500
c1cncc(COc2cccc(Nc3nccc(-c4nccs4)n3)c2)c1 [Compound I-23] | < 100 | < 500 | < 500
COc1cccc(Nc2nccc(-c3nccs3)n2)c1 [Compound I-25] | < 100 | 500 to 2000 | < 500
c1cc(Nc2nccc(-c3nccs3)n2)cc(OCCn2cccc2)c1 [Compound I-29] | < 100 | < 500 | < 500
Ic1cccc(Nc2nccc(-c3nccs3)n2)c1 [Compound I-31] | < 100 | < 500 | < 500
Brc1cccc(Nc2nccc(-c3nccs3)n2)c1 [Compound I-34] | < 100 | < 500 | < 500
O=[N+]([O-])c1ccccc1COc1cccc(Nc2nccc(-c3nccs3)n2)c1 [Compound I-35] | < 100 | > 2000 | > 2000
FC(F)(F)c1cccc(Nc2nccc(-c3nccs3)n2)c1 [Compound I-37] | < 100 | 500 to 2000 | < 500
Nc1ccccc1COc1cccc(Nc2nccc(-c3nccs3)n2)c1 [Compound I-38] | < 100 | < 500 | < 500
Fc1ccc(Nc2nccc(-c3nccs3)n2)cc1 [Compound I-43] | < 100 | > 2000 | > 2000

SMILES | Ki [1] [nM] | IC50 [2] [nM] | IC50 [3] [nM]
Clc1ccc(Nc2nccc(-c3nccs3)n2)cc1 [Compound I-46] | < 100 | > 2000 | > 2000
Fc1ccc(Nc2nccc(-c3nccs3)n2)cc1F [Compound I-49] | < 100 | 500 to 2000 | > 2000
c1ccc2cc(Nc3nccc(-c4nccs4)n3)ccc2c1 [Compound I-52] | < 100 | > 2000 | > 2000
NS(=O)(=O)c1ccc(Nc2nccc(-c3nccs3)n2)cc1 [Compound I-55] | < 100 | < 500 | < 500
c1cc(Nc2nccc(-c3nccs3)n2)cc(Oc2ccncc2)c1 [Compound I-56] |  | 500 to 2000 | 500 to 2000
Fc1cc(Nc2nccc(-c3nccs3)n2)cc(F)c1F [Compound I-58] | < 100 | > 2000 | > 2000
O=[N+]([O-])c1cccc(Oc2cccc(Nc3nccc(-c4nccs4)n3)c2)c1 [Compound I-59] |  | > 2000 | > 2000
Clc1cccc(Cl)c1Nc1nccc(-c2nccs2)n1 [Compound I-61] | > 1000 | > 2000 | > 2000
Nc1cccc(Oc2cccc(Nc3nccc(-c4nccs4)n3)c2)c1 [Compound I-62] |  | 500 to 2000 | < 500
Fc1cccc(F)c1Nc1nccc(-c2nccs2)n1 [Compound I-64] | > 1000 | > 2000 | > 2000
Cc1ccc(Nc2nccc(-c3nccs3)n2)cc1 [Compound I-67] | 100 to 1000 | < 500 | < 500
Cc1cc(C)cc(Nc2nccc(-c3nccs3)n2)c1 [Compound I-73] | < 100 | < 500 | < 500
c1cc(Nc2nccc(-c3nccs3)n2)cc(OCC2CCCCC2)c1 [Compound I-76] | < 100 | > 2000 | > 2000
COC(=O)c1ccc(COc2cccc(Nc3nccc(-c4nccs4)n3)c2)cc1 [Compound I-82] | < 100 | > 2000 | > 2000
Clc1ccccc1COc1cccc(Nc2nccc(-c3nccs3)n2)c1 [Compound I-88] | < 100 | 500 to 2000 | > 2000
Fc1cccc(F)c1COc1cccc(Nc2nccc(-c3nccs3)n2)c1 [Compound I-94] | < 100 | < 500 | < 500
FC(F)(F)c1cccc(COc2cccc(Nc3nccc(-c4nccs4)n3)c2)c1 [Compound I-106] | < 100 | > 2000 | > 2000
Fc1ccc(COc2cccc(Nc3nccc(-c4nccs4)n3)c2)cc1 [Compound I-109] | < 100 | > 2000 | > 2000
Clc1cccc(COc2cccc(Nc3nccc(-c4nccs4)n3)c2)c1Cl [Compound I-112] | < 100 | > 2000 | > 2000
